Measured values published in ChEMBL document CHEMBL2021853, “Discovery of 1,2,4-triazine derivatives as adenosine A(2A) antagonists using structure based drug design” (J Med Chem, 2012).

What was measured:
Plasma = assay: Plasma protein binding in rat at 10 uM after 6 hrs
Adenosine receptor A1 = target: T1, Adenosine receptor A1 (Homo sapiens, UniProt P30542)
T1 sequence (P30542 whole entry): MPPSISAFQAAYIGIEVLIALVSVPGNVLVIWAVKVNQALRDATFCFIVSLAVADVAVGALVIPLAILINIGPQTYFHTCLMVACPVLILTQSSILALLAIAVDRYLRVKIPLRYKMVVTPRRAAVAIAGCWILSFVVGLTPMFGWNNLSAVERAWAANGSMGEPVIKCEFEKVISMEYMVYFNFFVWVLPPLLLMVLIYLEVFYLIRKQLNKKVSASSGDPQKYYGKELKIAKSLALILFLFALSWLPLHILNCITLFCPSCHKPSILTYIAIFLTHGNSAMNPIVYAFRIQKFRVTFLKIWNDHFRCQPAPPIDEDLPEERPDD

Liver microsomes = assay: Half life in rat liver microsomes at 1 uM
[1] = Kinetic solubility of the compound
Adenosine receptor A2b = target: T2, Adenosine receptor A2b (Homo sapiens, UniProt P29275); assay: Inhibition of adenosine A2B receptor
T2 sequence (P29275 whole entry): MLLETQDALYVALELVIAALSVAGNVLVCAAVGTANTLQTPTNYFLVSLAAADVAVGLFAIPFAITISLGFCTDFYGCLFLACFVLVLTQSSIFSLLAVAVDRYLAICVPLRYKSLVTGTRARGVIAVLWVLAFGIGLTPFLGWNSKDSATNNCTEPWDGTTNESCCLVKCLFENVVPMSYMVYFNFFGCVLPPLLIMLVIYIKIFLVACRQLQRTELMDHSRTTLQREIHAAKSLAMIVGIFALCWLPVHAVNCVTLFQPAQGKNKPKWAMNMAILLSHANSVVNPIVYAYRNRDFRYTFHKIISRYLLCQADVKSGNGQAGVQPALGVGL

[2] = target: T3, Adenosine receptor A3 (Homo sapiens) (UniProt P0DMS8); assay: Antagonist activity at adenosine A3 receptor; format: functional
T3 sequence (whole entry): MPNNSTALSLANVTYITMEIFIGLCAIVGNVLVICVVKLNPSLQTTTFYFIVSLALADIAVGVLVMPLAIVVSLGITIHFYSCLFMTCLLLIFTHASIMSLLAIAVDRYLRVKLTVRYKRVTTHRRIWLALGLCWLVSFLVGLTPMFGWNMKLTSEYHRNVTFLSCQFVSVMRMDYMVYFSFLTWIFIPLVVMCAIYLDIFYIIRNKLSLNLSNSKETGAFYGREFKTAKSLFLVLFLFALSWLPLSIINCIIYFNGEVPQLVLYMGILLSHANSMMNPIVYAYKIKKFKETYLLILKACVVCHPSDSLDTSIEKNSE

[3] = Terminal half life in rat at 2 mg/kg, po; format: ADME, organism-based; design: dose 2 mg/kg, route oral; details: in vivo, read-out: beta t1/2 (converted)
[4] = Plasma clearance in rat at 1 mg/kg, iv; format: ADME, organism-based; design: dose 1 mg/kg, route intravenous
Rattus norvegicus [5] = assay: Reversal of haloperidol-induced catalepsy in po dosed Sprague-Dawley rat administered 30 mins post haloperidol-challenge measured after 1 hr; format: functional
[6] = Tmax in rat at 2 mg/kg, po; format: ADME, organism-based; design: dose 2 mg/kg, route oral; details: in vivo
[7] = Cmax in rat at 2 mg/kg, po; format: ADME, organism-based; design: dose 2 mg/kg, route oral; details: in vivo
[8] = Volume of distribution at steady state in rat at 1 mg/kg, iv; format: ADME, organism-based; design: dose 1 mg/kg, route intravenous; details: in vivo, read-out: Vdss
[9] = Oral bioavailability in rat at 2 mg/kg; format: ADME, organism-based; details: in vivo
[10] = Terminal half life in rat at 1 mg/kg, iv; format: ADME, organism-based; design: dose 1 mg/kg, route intravenous; details: in vivo, read-out: beta t1/2 (converted)
Nucleic Acid = assay: Ratio of drug level in brain to plasma in rat at 1 mg/kg, iv at 0.5 hrs; format: ADME, organism-based; design: dose 1 mg/kg, route intravenous
Rattus norvegicus [11] = assay: Reversal of haloperidol-induced catalepsy in po dosed Sprague-Dawley rat administered 30 mins post haloperidol-challenge measured after 2 hrs; format: functional
[12] = AUC (infinity) in rat at 1 mg/kg, iv; format: ADME, organism-based; design: dose 1 mg/kg, route intravenous, time infinity; details: plasma

With `Cc1cc(-c2nnc(N)nc2-c2cccc(F)c2)cc(C)n1` the PPB (Plasma) was 87%, the Ki (Adenosine receptor A1) was 110 nM and the t1/2 (Liver microsomes) was 1.3 h.
With `Nc1nnc(-c2cccc(Cl)c2)c(-c2ccccc2)n1` the PPB (Plasma) was 97.9% and the t1/2 (Liver microsomes) was 0.483 h.
`Cc1cc(-c2nnc(N)nc2-c2ccccc2)cc(C)n1` showed a Kinetic_solubility [1] of 40 µM, a PPB (Plasma) of 82.1% and a Ki (Adenosine receptor A1) of 85.1 nM. The Ki (Adenosine receptor A2b) was 50.1 nM, the t1/2 (Liver microsomes) was 1.67 h and the INH [2] was over 10 µM.
`Nc1nnc(-c2cc(Cl)cc(Cl)c2)c(-c2ccccc2)n1` gave a t1/2 (Liver microsomes) of 1.8 h and an INH [2] of over 10 µM.
Molecule `Cc1cc(-c2nnc(N)nc2-c2cc(F)cc(F)c2)cc(C)n1` has a Kinetic_solubility [1] of 45 µM, a Ki (Adenosine receptor A1) of 170 nM and a t1/2 (Liver microsomes) of 1.67 h.
`Cc1cc(-c2nnc(N)nc2-c2ccccc2)cc(C(F)(F)F)n1` showed a PPB (Plasma) of 92%, a half-life [3] of 1.1 h and a clearance [4] of 42 mL/min/kg. The Activity (Rattus norvegicus [5]) was “Dose-dependent effect”, the ED50 (Rattus norvegicus [5]) was 0.2 mg/kg and the Tmax [6] was 0.4 h. It also gave a Cmax [7] of 244 ng/mL, a Vd [8] of 4.6 L/kg and a bioavailability [9] of 100%. For the same molecule, the half-life [10] was 1.2 h, the BPR (Nucleic Acid) was 3.2 and the Activity (Rattus norvegicus [11]) was “Dose-dependent effect”. It also gave an ED50 (Rattus norvegicus [11]) of 0.2 mg/kg, a t1/2 (Liver microsomes) of 1.43 h and an AUC(0-inf) [12] of 397 ng·h/mL.
Work on `Nc1nnc(-c2ccccc2)c(-c2ccccc2)n1` yielded a Kinetic_solubility [1] of over 100 µM, a Ki (Adenosine receptor A1) of 275 nM and a t1/2 (Liver microsomes) of 0.383 h.
`Nc1nnc(-c2ccc(O)c(Cl)c2)c(-c2ccccc2)n1` gave a Kinetic_solubility [1] of 45 µM, a PPB (Plasma) of 98% and a t1/2 (Liver microsomes) of 1.15 h.
Molecule `Cc1cc(-c2nnc(N)nc2-c2ccccc2)cc(C)c1O` has a PPB (Plasma) of 93.3%, a Ki (Adenosine receptor A1) of 16.6 nM and a t1/2 (Liver microsomes) of 1.25 h.
`Cc1cc(C)cc(-c2nnc(N)nc2-c2ccccc2)c1` gave a Kinetic_solubility [1] of 20 µM, a PPB (Plasma) of 98% and a Ki (Adenosine receptor A1) of 195 nM. It also gave a t1/2 (Liver microsomes) of 0.15 h.
For `Cc1cc(-c2nnc(N)nc2-c2ccc(F)cc2)cc(C(F)(F)F)n1`, the PPB (Plasma) was 93%, the Ki (Adenosine receptor A1) was 117 nM and the t1/2 (Liver microsomes) was 1.62 h.
